# Data from ChEMBL document CHEMBL1150491, “Chemistry and pharmacokinetics of diarylthiophenes and terphenyls as selective COX-2 inhibitors” (Bioorg Med Chem Lett, 1996).
# Legend:
# [1] = Plasma clearance was evaluated in Sprague-Dawley rats at a dose of 15 mg/kg after iv administration; assay type: ADME, organism-based; design: dose 15 mg/kg, route intravenous; settings: rat
# [2] = biological target: T1, Prostaglandin G/H synthase 1 (Ovis aries, UniProt P05979); experiment: Compound was evaluated for inhibitory activity against ovine Prostaglandin G/H synthase 1
# T1 sequence (P05979 whole entry): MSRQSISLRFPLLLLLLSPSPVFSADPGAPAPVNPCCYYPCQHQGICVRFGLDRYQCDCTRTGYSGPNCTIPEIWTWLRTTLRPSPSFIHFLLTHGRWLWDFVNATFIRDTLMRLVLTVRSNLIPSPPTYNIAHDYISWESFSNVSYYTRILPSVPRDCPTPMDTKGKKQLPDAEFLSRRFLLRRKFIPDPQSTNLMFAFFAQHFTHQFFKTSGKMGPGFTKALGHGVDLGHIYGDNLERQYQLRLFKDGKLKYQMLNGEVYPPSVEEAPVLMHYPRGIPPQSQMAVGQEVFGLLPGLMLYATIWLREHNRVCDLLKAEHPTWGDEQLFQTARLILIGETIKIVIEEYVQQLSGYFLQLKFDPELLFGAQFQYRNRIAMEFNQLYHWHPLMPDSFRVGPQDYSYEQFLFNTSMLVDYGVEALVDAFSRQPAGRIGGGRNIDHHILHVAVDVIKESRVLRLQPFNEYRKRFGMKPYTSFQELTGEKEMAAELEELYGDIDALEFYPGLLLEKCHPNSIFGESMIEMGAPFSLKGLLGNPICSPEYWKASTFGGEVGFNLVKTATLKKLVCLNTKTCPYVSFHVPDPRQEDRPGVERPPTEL
# [3] = Time taken to reach maximum concentration in plasma was evaluated in Sprague-Dawley rats at a dose of 15 mg/kg after po administration; assay type: ADME, organism-based; design: dose 15 mg/kg, route oral; settings: rat
# [4] = Volume of distribution was evaluated in Sprague-Dawley rats at a dose of 15 mg/kg after iv administration; assay type: ADME, organism-based; design: dose 15 mg/kg, route intravenous; settings: rat, in vivo, read-out: Vss
# [5] = Half life period was evaluated in Sprague-Dawley rats at a dose of 15 mg/kg after po administration; assay type: ADME, organism-based; design: dose 15 mg/kg, route oral; settings: rat, in vivo
# [6] = biological target: T2, Prostaglandin G/H synthase 2 (Homo sapiens, UniProt P35354); experiment: Compound was evaluated for inhibitory activity against human Prostaglandin G/H synthase 2
# T2 sequence (P35354 whole entry): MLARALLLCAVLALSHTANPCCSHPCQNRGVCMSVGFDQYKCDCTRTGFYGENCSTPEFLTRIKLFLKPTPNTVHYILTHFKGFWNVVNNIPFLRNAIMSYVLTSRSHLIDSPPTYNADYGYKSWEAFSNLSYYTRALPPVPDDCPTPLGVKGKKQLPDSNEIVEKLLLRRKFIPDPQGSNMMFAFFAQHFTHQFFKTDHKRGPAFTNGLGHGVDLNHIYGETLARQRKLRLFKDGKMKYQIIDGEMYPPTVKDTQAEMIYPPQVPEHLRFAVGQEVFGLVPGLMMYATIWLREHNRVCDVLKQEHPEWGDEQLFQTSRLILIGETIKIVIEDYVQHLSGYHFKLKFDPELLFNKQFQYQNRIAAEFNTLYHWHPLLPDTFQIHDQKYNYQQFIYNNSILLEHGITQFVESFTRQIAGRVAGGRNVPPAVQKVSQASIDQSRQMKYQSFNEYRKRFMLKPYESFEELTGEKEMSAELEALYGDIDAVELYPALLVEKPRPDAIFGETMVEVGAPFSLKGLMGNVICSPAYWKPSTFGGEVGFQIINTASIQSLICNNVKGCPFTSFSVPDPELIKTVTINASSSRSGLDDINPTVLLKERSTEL
# [7] = Maximum concentration in plasma was evaluated in Sprague-Dawley rats at a dose of 15 mg/kg after po administration; assay type: ADME, organism-based; design: dose 15 mg/kg, route oral; settings: rat
# [8] = Half life period was evaluated against Sprague-Dawley rats at a dose of 15 mg/kg after iv administration; assay type: ADME, organism-based; design: dose 15 mg/kg, route intravenous; settings: rat, in vivo
# [9] = Oral bioavailability in rat (Sprague-Dawley) (dose 15 mg/kg); assay type: ADME, organism-based; settings: in vivo
# Canis familiaris [10] = experiment: Half life period was evaluated against Beagle dog at a dose of 15 mg/kg after po administration; assay type: ADME, organism-based, Canis lupus familiaris; design: dose 15 mg/kg, route oral; settings: in vivo
# Canis familiaris [11] = experiment: Area under curve was evaluated against Beagle dog at a dose of 15 mg/kg after po administration; assay type: ADME, organism-based, Canis lupus familiaris; design: dose 15 mg/kg, route oral; settings: in vivo
# [12] = Maximum time was evaluated against man at a dose of 10 mg/kg after po administration; assay type: ADME, organism-based; design: dose 10 mg/kg, route oral; settings: human, in vivo
# [13] = Bioavailability was evaluated against Beagle dog at a dose of 15 mg/kg after po administration; assay type: ADME, organism-based, Canis lupus familiaris; settings: in vivo
# Canis familiaris [14] = experiment: Maximum concentration was evaluated against Beagle dog at a dose of 15 mg/kg after po administration; assay type: ADME, organism-based, Canis lupus familiaris; design: dose 15 mg/kg, route oral; settings: in vivo
# [15] = Area under curve was evaluated against Cynomolgus monkey at a dose of 15 mg/kg after po administration; assay type: ADME, organism-based; design: dose 15 mg/kg, route oral; settings: cercopithecidae, in vivo
# [16] = Bioavailability was evaluated against Cynomolgus monkey at a dose of 15 mg/kg after po administration; assay type: ADME, organism-based, Macaca fascicularis; settings: in vivo
# [17] = Half life period was evaluated against man at a dose of 10 mg/kg after po administration; assay type: ADME, organism-based; design: dose 10 mg/kg, route oral; settings: human, in vivo
# Canis familiaris [18] = experiment: Maximum time was evaluated against Beagle dog at a dose of 15 mg/kg after po administration; assay type: ADME, organism-based, Canis lupus familiaris; design: dose 15 mg/kg, route oral; settings: in vivo
# [19] = Maximum concentration was evaluated against Cynomolgus monkey at a dose of 15 mg/kg after po administration; assay type: ADME, organism-based; design: dose 15 mg/kg, route oral; settings: cercopithecidae, in vivo
# [20] = Maximum concentration was evaluated against man at a dose of 10 mg/kg after po administration; assay type: ADME, organism-based; design: dose 10 mg/kg, route oral; settings: human, in vivo
# [21] = Half life period was evaluated against Cynomolgus monkey at a dose of 15 mg/kg after po administration; assay type: ADME, organism-based; design: dose 15 mg/kg, route oral; settings: cercopithecidae, in vivo
# [22] = Area under curve was evaluated against man at a dose of 10 mg/kg after po administration; assay type: ADME, organism-based; design: dose 10 mg/kg, route oral; settings: human, in vivo
# [23] = Maximum time was evaluated against Cynomolgus monkey at a dose of 15 mg/kg after po administration; assay type: ADME, organism-based; design: dose 15 mg/kg, route oral; settings: cercopithecidae, in vivo
compound,measurement,setting,value
CS(=O)(=O)c1ccc(-c2ccsc2-c2ccc(F)cc2)cc1,clearance,[1],158 mL/min/kg
same,IC50,[2],490 µM
same,Tmax,[3],4 h
same,Vd,[4],19 L/kg
same,half-life,[5],12.1 h
same,IC50,[6],8 µM
same,Cmax,[7],8 ng/mL
same,half-life,[8],14.3 h
same,bioavailability,[9],3.4%
CS(=O)(=O)c1ccc(-c2ccccc2-c2ccccc2)cc1,clearance,[1],35.8 mL/min/kg
same,IC50,[2],> 1000 µM
same,Tmax,[3],0.25 h
same,Vd,[4],3.08 L/kg
same,IC50,[6],11 µM
same,Cmax,[7],1430 ng/mL
same,half-life,[8],1.7 h
same,bioavailability,[9],60%
COc1ccc(-c2sccc2-c2ccc(S(C)(=O)=O)cc2)cc1,IC50,[2],48 µM
same,IC50,[6],5 µM
CCOC(=O)/C=C/c1cc(-c2ccc(S(C)(=O)=O)cc2)c(-c2ccc(F)cc2)s1,IC50,[2],100 µM
same,IC50,[6],> 300 µM
CS(=O)(=O)c1ccc(-c2cc(S(C)(=O)=O)sc2-c2ccc(F)cc2)cc1,IC50,[2],> 300 µM
same,IC50,[6],200 µM
Cc1ccc(-c2cscc2-c2ccc(S(C)(=O)=O)cc2)cc1,IC50,[2],438 µM
same,IC50,[6],4 µM
CS(=O)(=O)c1ccc(-c2cc([N+](=O)[O-])sc2-c2ccc(F)cc2)cc1,IC50,[2],> 1000 µM
same,IC50,[6],14 µM
CS(=O)(=O)c1ccc(-c2cc(N)sc2-c2ccc(F)cc2)cc1,IC50,[2],6 µM
same,IC50,[6],3 µM
CS(=O)(=O)c1ccc(-c2cscc2-c2ccc(S(C)(=O)=O)cc2)cc1,IC50,[2],> 300 µM
same,IC50,[6],> 300 µM
CCOC(=O)CCc1cc(-c2ccc(S(C)(=O)=O)cc2)c(-c2ccc(F)cc2)s1,IC50,[2],200 µM
same,IC50,[6],130 µM
CS(=O)(=O)c1ccc(-c2cc(Sc3ccccc3)sc2-c2ccc(F)cc2)cc1,IC50,[2],> 300 µM
same,IC50,[6],66 µM
CS(=O)(=O)c1ccc(-c2ccsc2-c2ccccc2)cc1,IC50,[2],> 1000 µM
same,IC50,[6],4 µM
CSc1ccc(-c2cscc2-c2ccc(S(C)(=O)=O)cc2)cc1,IC50,[2],93 µM
same,IC50,[6],6 µM
CS(=O)(=O)c1ccc(-c2c(-c3ccccc3)sc3c2CCCC3)cc1,IC50,[2],> 1000 µM
same,IC50,[6],19 µM
COc1ccc(-c2cscc2-c2ccc(S(C)(=O)=O)cc2)cc1,IC50,[2],> 1000 µM
same,IC50,[6],5 µM
CS(=O)(=O)c1ccc(-c2cscc2-c2ccccc2)cc1,IC50,[2],> 1000 µM
same,IC50,[6],4 µM
Cc1cc(-c2ccc(S(C)(=O)=O)cc2)c(-c2ccc(F)cc2)s1,clearance,[1],28.2 mL/min/kg
same,IC50,[2],80 µM
same,Tmax,[3],0.7 h
same,Vd,[4],16.8 L/kg
same,IC50,[6],10 µM
same,Cmax,[7],20 ng/mL
same,half-life,[8],19.4 h
same,bioavailability,[9],0.9%
CS(=O)(=O)c1ccc(-c2cc(Br)sc2-c2ccc(F)cc2)cc1 [DUP-697],clearance,[1],3.63 mL/min/kg
same,T1/2,Canis familiaris [10],6 h
same,AUC,Canis familiaris [11],1.5 µg·h/mL
same,Tmax,[12],3 h
same,Tmax,[3],8 h
same,bioavailability,[13],4.4%
same,Vd,[4],6.3 L/kg
same,Cmax,Canis familiaris [14],411 ng/mL
same,AUC,[15],56 µg·h/mL
same,bioavailability,[16],30.4%
same,half-life,[5],16.6 h
same,half-life,[17],292 h
same,T max,Canis familiaris [18],1 h
same,Cmax,[19],698 ng/mL
same,Cmax,[20],60.5 ng/mL
same,Cmax,[7],2400 ng/mL
same,half-life,[8],22 h
same,bioavailability,[9],75%
same,half-life,[21],31.8 h
same,AUC,[22],3240 µg·h/mL
same,Tmax,[23],24 h
CS(=O)(=O)c1ccc(-c2ccsc2-c2ccc(O)cc2)cc1,IC50,[2],293 µM
same,IC50,[6],86 µM
c1ccc(-c2ccsc2-c2ccccc2)cc1,clearance,[1],51.3 mL/min/kg
same,IC50,[2],28 µM
same,Tmax,[3],4.2 h
same,Vd,[4],19.6 L/kg
same,IC50,[6],> 300 µM
same,Cmax,[7],100 ng/mL
same,half-life,[8],4.94 h
same,bioavailability,[9],20%
CSc1ccc(-c2cscc2-c2ccc(SC)cc2)cc1,IC50,[2],15 µM
same,IC50,[6],101 µM
CS(=O)(=O)c1ccc(-c2cc(CCC(=O)O)sc2-c2ccc(F)cc2)cc1,IC50,[2],12 µM
same,IC50,[6],> 300 µM
CS(=O)(=O)c1ccc(-c2cc(CC#N)sc2-c2ccc(F)cc2)cc1,IC50,[2],> 300 µM
same,IC50,[6],49 µM
CS(=O)(=O)c1ccc(-c2cscc2-c2ccc(F)cc2)cc1,IC50,[2],674 µM
same,IC50,[6],8 µM
Cc1ccc(-c2sccc2-c2ccc(S(C)(=O)=O)cc2)cc1,IC50,[2],> 1000 µM
same,IC50,[6],13 µM
